Laboratory results taken from patent publication US8853258B2, “C-linked hydroxamic acid derivatives useful as antibacterial agents” (Pfizer Inc., priority 2009, dated 2014).
Converted amounts (≈) assume the structure as drawn. Read-outs that look alike come from different tables or passages of the source.

Assays:
[1] = target: Pseudomonas aeruginosa LpxC enzyme (Pseudomonas aeruginosa (strain ATCC 15692 / DSM 22644 / CIP 104116 / JCM 14847 / LMG 12228 / 1C / PRS 101 / PAO1), UniProt P47205); experiment: IC50 Assay, LpxC Enzyme from P. aeruginosa (PA LpxC Enzyme IC50); assay type: biochemical
Method: In order to assess the compounds biological activity, selected in-vitro assays were conducted on selected compounds. One of the assays measured the compounds ability to disrupt the synthesis of lipopolysaccharide, LPS, which is a component of the outer membrane of Gram-negative bacteria. Disruption of this synthesis is lethal to the bacteria. The assay determined the compound's ability to inhibit LpxC, which is the first enzyme in the biosynthetic pathway for LPS (measured as IC50). Additionally, MICs (minimal inhibitory concentrations) were determined for several bacteria. The specific protocols are described below:
A) IC50 Assay, LpxC Enzyme from P. aeruginosa (Labled as PA LpxC Enzyme IC50
At the end of 1 hour, 5 ul of 1N HCl was added to stop the enzyme reaction; the plates were centrifuged, and then processed with the BioTrove Rapidfire HTMS Mass Spectrometry System. A no-enzyme control was used in calculating the IC50 values from the percent conversion values.

[2] = tested on: Acinetobacter baumanii/haemolyticus: Multidrug-resistant clinical isolate (AB-3167); experiment: MIC determination (CLSI), AB-3167; assay type: cell-based; details: for MIC: Acinetobacter baumannii
Summary of the method: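 Multidrug-resistant clinical isolate AB-3167 (A. baumannii/haemolyticus) tested for minimum inhibitory concentration following CLSI dilution susceptibility standards M7-A7 and M100-S18.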

[3] = tested on: Escherichia coli EC-1: VOGEL, mouse virulent; experiment: MIC determination (CLSI), EC-1; assay type: cell-based; details: for MIC: Escherichia coli
Summary of the method: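 E. coli Vogel, a mouse-virulent strain (EC-1), was tested. MICs were set by dilution susceptibility testing per CLSI standards M7-A7/M100-S18.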

[4] = tested on: Klebsiella pneumoniae: Ciprofloxacin-resistant isolate, ESBL, clinical isolate (KP-3700); experiment: MIC determination (CLSI), KP-3700; assay type: cell-based
Summary of the method: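 Strain KP-3700, a clinical isolate producing extended-spectrum β-lactamases and resistant to ciprofloxacin, was tested. Minimum inhibitory concentrations determined via CLSI dilution methodology (M7-A7; M100-S18).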

[5] = tested on: Pseudomonas aeruginosa UI-18: Wild-type (PA-7); experiment: MIC determination (CLSI), PA-7; assay type: cell-based; details: for MIC: Pseudomonas aeruginosa
Summary of the method: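 Wild-type P. aeruginosa UI-18 tested for minimum inhibitory concentration. Broth/agar dilution following CLSI standards (M7-A7, M100-S18).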

[6] = Table 1, read-out: PA LpxC enzyeme IC50
[7] = P. aeruginosa LpxC enzyme, read-out: PA LpxC enzyeme IC50
[8] = Acinetobacter baumanii/haemolyticus AB-3167
[9] = Pseudomonas aeruginosa UI-18 (PA-7)
[10] = Table 3, read-out: PA LpxC enzyeme IC^50
[11] = Table 1, MIC, read-out: AB-3167 (MIC)
[12] = Table 1, MIC, read-out: PA-7 (MIC)
[13] = Acinetobacter baumanii/haemolyticus multidrug-resistant clinical isolate AB-3167
[14] = Escherichia coli EC-1 VOGEL, mouse virulent
[15] = Pseudomonas aeruginosa UI-18 wild-type PA-7

Structure (SMILES)	IC50 [1, 7]	AB-3167 MIC [2, 8]	EC-1 MIC ([3]; Escherichia coli EC-1)	KP-3700 MIC [4]	PA-7 MIC [5, 9]	AB-3167 MIC [2, 13]	EC-1 MIC [3, 14]	PA-7 MIC [5, 15]	also measured
C[C@@](CCc1ccc(-c2ccc(OP(=O)(O)O)cc2)cc1)(C(=O)NO)S(C)(=O)=O [Example 6, 4′-[(3R)-4-(Hydroxyamino)-3-methyl-3-(methylsulfonyl)-4-oxobutyl]biphenyl-4-yl dihydrogen phosphate]									IC50 [1, 6]: 88.1 nM; MIC ([2]; read-out: AB-3167 (MIC)): ≥ 64 µg/mL; MIC ([3]; read-out: EC-1: (MIC)): ≥ 64 µg/mL; KP-3700 MIC ([4]; Table 1, MIC): ≧64 mg/L; MIC ([5]; read-out: PA-7 (MIC)): ≥ 64 µg/mL
CC(C)(O)C(=O)c1ccc(-c2ccc(CC[C@](C)(C(=O)NO)S(C)(=O)=O)cc2)cc1 [Example 217]	0.278 nM	≧64 mg/L	0.5 µg/mL	4 µg/mL	4 µg/mL				
Cc1ccc(OCc2noc(COc3ccc(CCC(C)(C(=O)NO)S(C)(=O)=O)cc3)n2)cc1 (centres unmarked) [Example 286, N-hydroxy-2-methyl-4-[4-({3-[(4-methylphenoxy)methyl]-1,2,4-oxadiazol-5-yl}methoxy)phenyl]-2-(methylsulfonyl)butanamide]				≧64 mg/L					IC50 [1, 10]: 11.9 nM; MIC ([2]; Table 3, read-out: AB-3167 MIC): ≥ 64 µg/mL; MIC ([3]; read-out: EC-1 MIC): 32 µg/mL (≈ 65.4 µM); MIC ([5]; Table 3, read-out: PA-7 MIC): ≥ 64 µg/mL
CC1(O)CCN(C(=O)COc2ccc(-c3ccc(CC[C@](C)(C(=O)NO)S(C)(=O)=O)cc3)cc2)CC1 [Example 222]	0.841 nM	≧64 mg/L	16 µg/mL	≧64 mg/L	32 µg/mL				
CC(CCc1ccc(OCc2ccccn2)cc1)(C(=O)NO)S(C)(=O)=O (racemic) [Example 16, (+/−)-N-Hydroxy-2-methyl-2-(methylsulfonyl)-4-[4-(pyridin-2-ylmethoxy)phenyl]butanamide]				≧64 mg/L					IC50 ([1]; PA LpxC enzyeme IC50, Table 1): 5.01 nM; MIC [2, 11]: ≥ 64 µg/mL; MIC ([3]; read-out: EC-1: (MIC)): ≥ 64 µg/mL; MIC [5, 12]: 16 µg/mL (≈ 42.3 µM)
CC(CCc1ccc(-c2ccc(OCCCCO)cc2)cc1)(C(=O)NO)S(C)(=O)=O (centres unmarked) [Example 136]	0.205 nM			1 µg/mL		≧64 mg/L	0.125 µg/mL	1 µg/mL	
Cc1cc(-c2ccccc2)ccc1CCC(C)(C(=O)NO)S(C)(=O)=O (centres unmarked) [Example 1, N-Hydroxy-2-methyl-4-(3-methylbiphenyl-4-yl)-2(methylsulfonyl)butanamide]				8 µg/mL					IC50 [1, 6]: 1.68 nM; MIC [2, 11]: 16 µg/mL (≈ 44.3 µM); MIC ([3]; read-out: EC-1: (MIC)): 2 µg/mL (≈ 5.53 µM); MIC [5, 12]: 4 µg/mL (≈ 11.1 µM)
Cc1cc(-c2ccc(CCC(C)(C(=O)NO)S(C)(=O)=O)cc2)ccc1C#N (centres unmarked) [Example 109]	0.144 nM			2 µg/mL		32 µg/mL	0.5 µg/mL	2 µg/mL	
CC(CCc1ccc(-c2ccc(-c3cc(CO)no3)cc2)cc1)(C(=O)NO)S(C)(=O)=O (centres unmarked) [Example 9, N-Hydroxy-4-{4′-[3-(hydroxymethyl)isoxazol-5-yl]biphenyl-4-yl}-2-methyl-2-(methylsulfonyl)butanamide]				4 µg/mL					IC50 [1, 6]: 0.32 nM; MIC [2, 11]: 32 µg/mL (≈ 72 µM); MIC ([3]; read-out: EC-1: (MIC)): 0.125 µg/mL (≈ 0.281 µM); MIC [5, 12]: 2 µg/mL (≈ 4.5 µM)
COc1ccc(-c2ccc(CCC(C)(C(=O)NO)S(C)(=O)=O)cc2F)cn1 (centres unmarked) [Example 213]	0.518 nM	≧64 mg/L	2 µg/mL	8 µg/mL	2 µg/mL				
C[C@@](CCc1ccc(-c2ccc(C(=O)CO)cc2)cc1)(C(=O)NO)S(C)(=O)=O [Example 186]	0.238 nM			4 µg/mL		≧64 mg/L	2 µg/mL	1 µg/mL	
C[C@@](CCc1ccc(-c2cnc3ccccc3c2)cc1)(C(=O)NO)S(C)(=O)=O [Example 201]	0.24 nM	≧64 mg/L	1 µg/mL	8 µg/mL	2 µg/mL				
C[C@@](CCc1ccc(-c2ccc(O)cc2)cc1)(C(=O)NO)S(C)(=O)=O [Example 23, (2R)—N-hydroxy-4-(4′-hydroxybiphenyl-4-yl)-2-methyl-2-(methylsulfonyl)butanamide]				8 µg/mL					IC50 [1, 6]: 0.18 nM; MIC [2, 11]: ≥ 64 µg/mL; MIC ([3]; read-out: EC-1: (MIC)): 4 µg/mL (≈ 11 µM); MIC [5, 12]: 2 µg/mL (≈ 5.5 µM)
Cc1cc(CCC(C)(C(=O)NO)S(C)(=O)=O)ccc1-c1ccc(C#N)cc1 (centres unmarked) [Example 162]	0.241 nM			16 µg/mL		16 µg/mL	2 µg/mL	4 µg/mL	
CC(CCc1ccc(C2=CCOCC2)cc1)(C(=O)NO)S(C)(=O)=O (centres unmarked) [Example 225]	1.88 nM	≧64 mg/L	32 µg/mL	≧64 mg/L	4 µg/mL				
Cc1cccnc1COc1ccc(CCC(C)(C(=O)NO)S(C)(=O)=O)cc1 (centres unmarked) [Example 287, N-hydroxy-2-methyl-4-{4-[(3-methylpyridin-2-yl)methoxy]phenyl}-2-(methylsulfonyl)butanamide]				≧64 mg/L					IC50 [1, 10]: 3.14 nM; MIC ([2]; Table 3, read-out: AB-3167 MIC): ≥ 64 µg/mL; MIC ([3]; read-out: EC-1 MIC): ≥ 64 µg/mL; MIC ([5]; Table 3, read-out: PA-7 MIC): 16 µg/mL (≈ 40.8 µM)
CC(CCc1ccc(-c2ccc(F)cc2)c(F)c1)(C(=O)NO)S(C)(=O)=O (centres unmarked) [Example 167]	0.235 nM			4 µg/mL		8 µg/mL	1 µg/mL	0.5 µg/mL	
CC(CCc1ccc(-c2ccc(N3CCOCC3)cc2)cc1)(C(=O)NO)S(C)(=O)=O (centres unmarked) [Example 165]	0.295 nM			8 µg/mL		≧64 mg/L	0.5 µg/mL	8 µg/mL	
CC(CCc1ccc(-c2ccsc2)cc1)(C(=O)NO)S(C)(=O)=O (centres unmarked) [Example 77]	0.991 nM			16 µg/mL		≧64 mg/L	8 µg/mL	2 µg/mL	
C[C@@](CCc1ccc(-c2ccc3c(c2)C(=O)NC3)cc1)(C(=O)NO)S(C)(=O)=O [Example 208]	0.374 nM	≧64 mg/L	4 µg/mL	16 µg/mL	2 µg/mL				
C[C@@](CCc1ccc(-c2ccc(NS(C)(=O)=O)cc2)cc1)(C(=O)NO)S(C)(=O)=O [Example 210]	0.706 nM	≧64 mg/L	4 µg/mL	16 µg/mL	2 µg/mL				
CC(=O)c1cc(-c2ccc(CCC(C)(C(=O)NO)S(C)(=O)=O)cc2)ccc1O (centres unmarked) [Example 180]	0.826 nM			16 µg/mL		16 µg/mL	4 µg/mL	8 µg/mL	
CC(CCc1ccc(-c2cccc(F)c2)cc1)(C(=O)NO)S(C)(=O)=O (centres unmarked) [Example 42]	0.335 nM			4 µg/mL		≧64 mg/L	2 µg/mL	0.5 µg/mL	
C[C@@](CCc1ccc(-c2ccc3c(c2)OCO3)cc1)(C(=O)NO)S(C)(=O)=O [Example 215]	0.0842 nM	16 µg/mL	0.5 µg/mL	2 µg/mL	0.5 µg/mL				
Cc1cccc(COc2ccc(CCC(C)(C(=O)NO)S(C)(=O)=O)cc2)c1 (centres unmarked) [Example 310, N-hydroxy-2-methyl-4-{4-[(3-methylbenzyl)oxy]phenyl}-2-(methylsulfonyl)butanamide]				8 µg/mL					IC50 [1, 10]: 0.883 nM; MIC ([2]; Table 3, read-out: AB-3167 MIC): 16 µg/mL (≈ 40.9 µM); MIC ([3]; read-out: EC-1 MIC): 2 µg/mL (≈ 5.11 µM); MIC ([5]; Table 3, read-out: PA-7 MIC): 4 µg/mL (≈ 10.2 µM)
